# Patent US20190223483A1, “SENSORY MODIFIER COMPOUNDS” (CARGILL, INCORPORATED, priority 2017, published 2019)
# Assay: Roundtable assessment of astringency
# Assay type: in vivo
# Conditions: RebM 700 ppm, modifier between 0 ppm and about 500 ppm
# Protocol: For other sweetness attributes, the solutions were tested by a panel of at least four individuals that are highly-trained in tasting steviol glycoside solutions. The highly-trained panelists used a roundtable methodology to assess each sweetness attribute. To test each solution, the highly-trained panelists dispensed approximately 2 mL of each solution into their own mouths by transfer pipet, dispersed the solution by moving their tongues, and recorded a value for the particular sweetness attribute being tested. Between tasting solutions, the panelists were able to cleanse their palates with water. For each sweetness attribute, the panelist agreed on a descriptive scale with relative intensities assigned for each sweetness attribute and then recorded the values for each sweetness attribute against this. For example, this roundtable assessment of sweetness linger assigned a scale of 0 to 6 with a score of 0 indicating no sweetness linger and a score of 6 indicating extreme sweetness linger. Roundtable assessment of sweetness linger assigned a scale of 0 to 6 with a score of 0 indicating no sweetness linger and a score of 6 indicating extreme sweetness linger (0=none, 1=trace, 2=slight, 3=moderate, 4=definite, 5=strong, 6=extreme). Roundtable assessment of rounded assigned a scale of 0 to 3 with a score of 0 indicating spikey and a score of 3 indicating desirable rounded (0=none, 1=mostly spikey, some rounded, 2=mostly rounded, some spikey, 3=rounded). Roundtable assessment of mouthfeel assigned a scale of 0 to 2 with a score of 0 indicating water and a score of 2 indicating syrupy (0=water, 1=sucrosey, 2=syrupy). Roundtable assessment of bitterness assigned a scale of 0 to 6 with a score of 0 indicating no bitterness and a score of 6 indicating extreme sweetness linger (0=none, 1=trace, 2=slight, 3=moderate, 4=definite, 5=strong, 6=extreme). Roundtable assessment of off tastes assigned a scale of 0 to 6 with a score of 0 indicating no bitterness and a score of 6 indicating extreme off tastes (0=none, 1=trace, 2=slight, 3=moderate, 4=definite, 5=strong, 6=extreme).
# Roundtable assessment of botanical notes assigned a scale of 0 to 5 with a score of 0 indicating no botanical notes and a score of 5 indicating strong (0=none, 1=trace, 2=slight, 3=moderate, 4=definite, 5=strong).
# Solutions of steviol glycosides and sensory modifier compound were prepared at increasing ratios of sensory modifier to steviol glycoside by weight. […] The concentration of steviol glycosides was 700 ppm in each solution. The solutions were tested for astringency.
smiles,measurement,value
"O=C(/C=C/c1ccc(O)c(O)c1)O[C@@H](C(=O)O)[C@@H](OC(=O)/C=C/c1ccc(O)c(O)c1)C(=O)O [tartaric backbone (cichoric acid), cichoric acid]",Astringency,imperceptible
